Earlier results as cited in patent US20060233725A1, “Non-Endocrine Disrupting Cytoprotective UV Radiation Resistant Substance” (priority 2001, published 2006).

system: cancer cells; conditions: recent studies on endocrine disrupting agents in sunscreen formulations

Effect on growth of cancer cells, made cancer cells grow more rapidly:
Cc1ccc(C=C2C(=O)C3(C)CCC2C3(C)C)cc1 (centres unmarked) [4-methylbenzylidene camphor], CC1CC(OC(=O)c2ccccc2O)CC(C)(C)C1 (centres unmarked) [homosalate], CCCCC(CC)COC(=O)c1ccc(N(C)C)cc1 (centres unmarked) [octyl-dimethyl-PABA], CCCCC(CC)COC(=O)C=Cc1ccc(OC)cc1 (centres unmarked) [octyl methoxycinnamate], COc1ccc(C(=O)c2ccccc2)c(O)c1 [benzophenone-s]
